Assay [1] is described as follows: Inhibition of Cryptosporidium parvum NMT.
The subject of a further assay is Cryptosporidium parvum. Description: Antiparasitic activity against Cryptosporidium parvum assessed as inhibition of parasitic growth. The format is functional, organism-based.
Assay [2] is described as follows: Selectivity index, ratio of IC50 for human NMT1 to IC50 for Cryptosporidium parvum NMT.
Assay [3] concerns the target T1, Glycylpeptide N-tetradecanoyltransferase 1 (Homo sapiens, UniProt P30419).
T1 sequence (P30419 whole entry): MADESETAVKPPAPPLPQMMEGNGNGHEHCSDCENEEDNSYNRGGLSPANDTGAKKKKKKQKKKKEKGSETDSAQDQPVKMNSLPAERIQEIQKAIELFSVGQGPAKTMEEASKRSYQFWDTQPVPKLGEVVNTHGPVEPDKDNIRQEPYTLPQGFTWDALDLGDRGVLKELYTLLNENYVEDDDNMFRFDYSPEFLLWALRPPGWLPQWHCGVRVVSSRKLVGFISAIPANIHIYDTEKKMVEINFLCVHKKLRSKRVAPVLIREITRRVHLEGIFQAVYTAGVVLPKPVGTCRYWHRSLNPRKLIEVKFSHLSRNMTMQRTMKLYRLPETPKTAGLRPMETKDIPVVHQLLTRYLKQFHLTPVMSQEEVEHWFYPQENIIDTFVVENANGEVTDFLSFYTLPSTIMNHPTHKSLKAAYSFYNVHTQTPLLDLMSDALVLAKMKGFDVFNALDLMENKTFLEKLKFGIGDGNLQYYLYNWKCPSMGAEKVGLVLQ
Nature of the assay: Inhibition of human NMT1.

Structures are written as SMILES.

`CCN(c1ccccc1)S(=O)(=O)c1ccc(Cl)c(C(=O)Nc2ccccc2N2CC(CC)(CC)CC2=O)c1` came in with an IC50 in assay [1] of more than 125 µM. Further, the EC50 with Cryptosporidium parvum was more than 20 µM.
In assay [1], `CCN(c1ccccc1)S(=O)(=O)c1ccc(Cl)c(C(=O)Nc2ccccc2N2CCN(C(C)C)C2=O)c1` registered an IC50 of more than 125 µM. The EC50 in the assay with Cryptosporidium parvum was more than 20 µM.
Turning to `CCN1CCN(c2ccccc2NC(=O)c2cc(S(=O)(=O)N(CC)c3ccccc3)ccc2Cl)C1=O`, the Ratio IC50 in assay [2] was more than 44. Moreover, the IC50 in assay [1] is 2.8 µM; in assay [3], more than 125 µM. Besides, the concentration for a half-maximal effect (EC50) with Cryptosporidium parvum stood at 16.4 µM.
In the same order, the values of `CCN(c1ccccc1)S(=O)(=O)c1ccc(Cl)c(C(=O)Nc2ccccc2N2CCN(CC3CC3)C2=O)c1` are more than 2, 52.8 µM, more than 125 µM and more than 20 µM.
Compound `CCN(c1ccccc1)S(=O)(=O)c1ccc(Cl)c(C(=O)Nc2ccccc2N2CC(C)(C)CC2=O)c1` registered an IC50 in assay [1] of more than 125 µM. The EC50 in the assay with Cryptosporidium parvum was more than 20 µM.
As to `CCN(c1ccccc1)S(=O)(=O)c1ccc(Cl)c(C(=O)Nc2ccccc2N2CCN(C)C2=O)c1`, the Ratio IC50 in assay [2] amounted to 4.6. Moreover, the IC50 in assay [1] turned out to be 2.5 µM; in assay [3] it was 11.4 µM. In addition, the EC50 in the assay on Cryptosporidium parvum turned out to be 6.9 µM.
For the compound `CCN(c1ccccc1)S(=O)(=O)c1ccc(Cl)c(C(=O)Nc2ccccc2N2CCC(C)(C)C2=O)c1`, the Ratio IC50 in assay [2] was more than 9. The IC50 in assay [1] is 13.8 µM; in assay [3], more than 125 µM. For the same compound, the EC50 with Cryptosporidium parvum is more than 20 µM.
The compound `CCN(c1ccccc1)S(=O)(=O)c1ccc(Cl)c(C(=O)Nc2ccccc2N2C(=O)CC(C)(C)C2=O)c1` had an IC50 in assay [1] of more than 125 µM. The EC50 in the assay with Cryptosporidium parvum is more than 20 µM.
Turning to `CCN(c1ccccc1)S(=O)(=O)c1ccc(Cl)c(C(=O)Nc2ccccc2N2CCCC2=O)c1`, the Ratio IC50 in assay [2] was determined as 1.4. This compound also yielded an IC50 in assay [1] of 3.5 µM. For the same compound, in the assay on Cryptosporidium parvum, the EC50 was found to be 3.5 µM.

As usually defined, the IC50 is the concentration needed to halve the response being measured. Read a high IC50 as weaker potency in that assay. The term EC50 denotes the concentration that produces a half-maximal response.

The record behind these values is ChEMBL document CHEMBL6109051, “Structure guided modification of 2-chloro-5-(ethyl-phenyl-sulfamoyl)-N-[2-(2-oxo-pyrrolidin-1-yl)-phenyl]-benzamide to afford selective inhibitors of Cryptosporidium parvum N-myristoyltransferase” (Bioorg Med Chem Lett, 2025).
